This note sets out measurements from patent US20040029816A1, “Hepatoprotective activity of 10-O-P-hydroxybenzoyiaucubin” (priority 2002, published 2004).

In assay [1] the test system is CCl4 induced hepatic injury. The experiment in a line: Hepatoprotective activity (in vivo) against CCl4 induced hepatic injury in rats. From the text:
Treatment of experimental animals with the 033 and 033(1) against CCU induced liver damage reduced the elevated levels of serum GPT, GOT, ALP, bilirubin, TG and hepatic lipid peroxidation and increased the GSH level.

Assay [2] concerns GalN induced hepatic injury. The assay can be described thus: Hepatoprotective activity (in vivo) against galactosamine (GalN) induced hepatic injury in rats. From the text: The hepatoprotective activity observed with 033 and 033(1) was 59.58 & 44.97, 56.62 & 44.05, 54.28 & 47.66, 57.71 & 66.66, 57.89 & 49.33 percent in serum GPT, GOT, Bilirubin, ALP, and TG respectively and 67.51 & 48.34, 66.56 & 55.13 percent in hepatic lipid peroxidation (LP) and GSH respectively. The same with silymarin was 57.38, 55.40, 60.00, 53.54,46.17, 69.59, 67.18 percent respectively (Table-2). [table]

Where [3] appears, read: liver homogenate, rats, fed p.o. at 48 h, 24 h, 2 h before and 6 h after CCl4 (1 ml/kg, p.o.), 033 400 mg/kg, 033 (1) and silymarin 50 mg/kg, mean of six animals.
[4] abbreviates: rats, fed p.o. at 48 h, 24 h, 2 h before and 6 h after CCl4 (1 ml/kg, p.o.), 033 400 mg/kg, 033 (1) and silymarin 50 mg/kg, mean of six animals.
The mark [5] stands for this setting: rats, fed p.o. at 48 h, 24 h, 2 h before and 6 h after CCl4 (1 ml/kg, p.o.), 033 400 mg/kg, 033 (1) and silymarin 50 mg/kg, mean of six animals, listed as 033(1).
The mark [6] stands for this setting: liver, rats, fed p.o. at 48 h, 24 h, 2 h before and 6 h after GalN (300 mg/kg, s.c.), 033 400 mg/kg, 033 (1) and silymarin 50 mg/kg, mean of six animals.
The mark [7] stands for this setting: rats, fed p.o. at 48 h, 24 h, 2 h before and 6 h after GalN (300 mg/kg, s.c.), 033 400 mg/kg, 033 (1) and silymarin 50 mg/kg, mean of six animals.

As for `O=C(OCC1=C[C@@H](O)[C@@H]2C=CO[C@@H](O[C@@H]3O[C@H](CO)[C@@H](O)[C@H](O)[C@H]3O)[C@H]12)c1ccc(O)cc1` [033 (1), 10-O-p-hydroxybenzoylaucubin], the “hepatoprotective activity (in words)” value in assay [1] (experimentally induced hepatic damage with CCl4 in rats) is reported as “marked hepatoprotective activity”. In addition, in assay [1] (setting [3]), the “Hepatoprotective activity, hepatic Glutathione (GSH)” value came to 38.12% and the “Hepatoprotective activity, hepatic Lipid peroxidation (LP)” value was found to be 41.48%. In assay [1] (setting [4]), the Hepatoprotective activity, serum ALP (table head: Al.F) is 60.2%; the “Hepatoprotective activity, serum Bilirubin (table head: Bihrubin (mg %))” value was 71.79%; the “Hepatoprotective activity, serum GOT (Units)” value is given as 57.43%; the “Hepatoprotective activity, serum GPT (table head: OPT (Units))” value was 59.52%. Moreover, the “Hepatoprotective activity, serum Triglycerides (TG)” value in assay [1] (setting [4]) worked out at 38.53%. In addition, in assay [1] (setting [5]), the “Hepatoprotective activity, serum ALP (table head: Al.F)” value was 60.17% and the “Hepatoprotective activity, serum GOT (Units)” value worked out at 57.42%. The “hepatoprotective activity (in words)” value in assay [2] (experimentally induced hepatic damage with galactosamine (GalN) in rats) is “marked hepatoprotective activity”. Moreover, in assay [2] (setting [6]), the “Hepatoprotective activity, hepatic Glutathione (GSH)” value is 55.13% and the “Hepatoprotective activity, hepatic Lipid peroxidation (LP)” value is reported as 48.34%. Further, in assay [2] (setting [7]), the “Hepatoprotective activity, serum ALP” value was found to be 66.66%; the “Hepatoprotective activity, serum Bilirubin (mg %)” value was 47.66%; the “Hepatoprotective activity, serum GOT (Units)” value is listed as 44.05%; the “Hepatoprotective activity, serum GPT (Units)” value was 44.97%. In addition, in assay [2] (setting [7]), the “Hepatoprotective activity, serum Triglycerides (mg %)” value was determined as 49.33%.
